# From patent US20160030415A1, “TREATMENT AND PROPHYLAXIS OF KIDNEY DISEASES” (priority 2013, published 2016)
# System: Streptozocin (STZ) induced diabetic rats
# Assay: Study 1: HCQ and its combination with Losartan in renal damage, comparison with diabetic control
# Type: in vivo, Wistar rats
# Conditions: after 8 weeks oral once daily, Losartan 5.5 mg/kg, Hydroxychloroquine 22.5 mg/kg; for GSH (% Naive) / GSH Mean ± SEM / TBARS (% Naive) / TBARS Mean ± SEM: kidney homogenate
# Experimental: The Efficacy of the drugs was tested in two different models, one involving comparison with diabetic control (i.e. Diabetic Rats not treated with any medication) and the other involving comparison with the anti-diabetic control group (i.e. Diabetic rats administered Glimepiride) in two separate studies. 25 male Wistar rats weighing 150-250 g were divided randomly into 5 groups consisting of 5 animals each. Diabetes was induced in rats by single administration of streptozotocin (55 mg/kg/i.p) dissolved in 0.1 M-citrate buffer, pH 4.5. Group 1 (normal control) consisted of normal rats that neither received Streptozotocin (STZ) nor any test drug; Group 2 served as streptozotocin induced diabetic control. Group 3 was diabetic rats treated with Losartan (LT) (5.5 mg/kg); Group 4 was diabetic rats treated with Hydroxychloroquine (HCQ) (22.5 mg/kg), Group 5 was diabetic rats treated with combination of HCQ (22.5 mg/kg) and LT (5.5 mg/kg). The study drugs were dissolved/suspended in distilled water and administered orally once a day for eight weeks. Blood glucose levels and renal oxidative stress parameters including TBARS, GSH and total Protein in Kidney Homogenate were assessed after the completion of eighth week of the study.
Structure (SMILES),Blood glucose level (% Control),Blood glucose level Mean ± SEM,Total Protein in Kidney Homogenate (% Naive),Total Protein in Kidney Homogenate Mean ± SEM [µg/mL],GSH (% Naive),GSH Mean ± SEM [nM/mg],TBARS (% Naive),TBARS Mean ± SEM [nM/mg]
"CCN(CCO)CCCC(C)Nc1ccnc2cc(Cl)ccc12 (stereo not shown) [Hydroxychloroquine, 2-[{4-[(7-chloroquinolin-4-yl)amino]pentyl}(ethyl)amino]ethanol]",(62.64)) % Control,369.9 ± 42.3 mg/dL,(190.71) % Naive,1098.00 ± 23.12,(41.92) % Naive,0.827 ± 0.08,(178.29) % Naive,0.772 ± 0.06
CCCCc1nc(Cl)c(CO)n1Cc1ccc(-c2ccccc2-c2nn[nH]n2)cc1 [Losartan],(98.57) % Control,582.1 ± 00^ mg/dl,(204.95) % Naive,1180.00,(41.92) % Naive,0.827,(186.61) % Naive,0.808
